These results are taken from PMC6152701, “Synthesis and Bioactivity Characterization of Scutellarein Sulfonated Derivative” (Molecules : A Journal of Synthetic Chemistry and Natural …, 2017).

A short description of series [1]: Aqueous solubility by UV spectrophotometry. It counts as physicochemical. As for the experimental part: Scutellarin (1) and scutellarein (2) (300 μg) were dissolved in 25 mL CH3OH, and 3 (300 μg) was dissolved in 25 mL water. […] Each tested compound (250 μg) was ultrasound dissolved in 10 mL pure water for 1 h at 25 °C, and the solutions were stood for 30 min before centrifuging at the speed of 30,000 r/min. Absorbances of each compound were obtained by UV scanning, and the aqueous solubility of all three compounds were obtained through analysis of the standard curve.

Series [2] relates to Platelet-poor plasma (PPP), thrombin time. As to the kind of experiment: Antithrombic assay: thrombin time (TT). The note with it: rabbit PPP, compound 100 μM, mean ± SD n = 4, blank plasma 19.85 ± 1.59. It counts as biochemical, New Zealand white rabbits. An excerpt: (§1) According to our previous studies, the antithrombotic activity could be estimated by measuring the prolongation of the plasma clotting time of thrombin time (TT), activated partial thromboplastin time (APTT), international normalized ratio (INR) increase in prothrombin time (PT), and reduction in fibrinogen (FIB) content.
(§2) Male New Zealand white rabbits weighing 2–2.5 kg were obtained from the experimental animal center of Nanjing University of Chinese Medicine and were approved by Animal Ethics Committee of Nanjing University of Chinese Medicine. They were kept in plastic cages at 22 ± 2 °C with free access to pellet food and water and on a 12 h light/dark cycle. Animal welfare and experimental procedures were carried out in accordance with the guide for the care and use of laboratory animals (National Research Council of USA, 1996) and related ethical regulations of Nanjing University of Chinese Medicine. Rabbits were anesthetized with pentobarbital (50 mg/kg) and blood was drawn from the common carotid artery. Blood was collected into plastic tubes with 3.8% sodium citrate (citrate/blood: 1:9, v/v) for plasma anticoagulation. Platelet-poor plasma (PPP) was separated from blood by centrifugation at 3000 rpm for 10 min.
(§3) TT, APTT, PT, and FIB were tested with commercial kits following the manufacturer’s instructions by a coagulometer (Model LG-PABER-I, Steellex Co., Beijing, China). All the compounds were dissolved in PBS with 20% DMSO, and the concentration was 100 μM. TT was determined by incubating 40 μL PPP solution for 3 min at 37 °C, followed by addition of 40 μL thrombin solution and 20 μL sample for 3 min at 37 °C. APTT was determined by incubating 10 μL sample solution and 50 μL PPP solution with 50 μL APTT-activating agent for 3 min at 37 °C, followed by the addition of 50 μL CaCl2. PT was determined by incubating 40 μL PPP solution for 3 min at 37 °C, followed by the addition of 40 μL thromboplastin agent and 20 μL sample. FIB was determined by incubating 10 μL PPP solution with 90 μL imidazole buffer for 3 min at 37 °C, followed by addition of 50 μL FIB agent and 10 μL sample solution. By measuring the prolongation of the plasma clotting time of thrombin time (TT), activated partial thromboplastin time (APTT), INR increase in prothrombin time (PT), and reduction in fibrinogen (FIB) content, the antithrombotic activity was assessed.

The nature of series [3]: DPPH-radical scavenging ability assay. It counts as biochemical. The note with it: DPPH 80 μmol/L in DMSO, 30 min in the dark. The protocol:
Antioxidants play important roles in removing free radicals, as antioxidants provide hydrogen to free radicals and prohibit the adverse reactions from destroying normal tissues. This assay was measured according to previous studies.
The following method was adopted to evaluate the 1,1-diphenyl-2-picrylhydrazyl (DPPH) scavenging property of the products: scutellarin (1), scutellarein (2), and 3 were dissolved in DMSO to result in final concentrations ranging from 16 to 250 μmol/L, and then DPPH (80 μmol/L, 100 μL) dissolved in DMSO was added in the testing samples. After incubating for 30 min in the dark, the scavenging effect was calculated according to the following equation:Scavenging effect (%) = [(1 − (A1 − A2)/A0] × 100%(1) where A0 is the absorbance of the control (without extract), A1 is the absorbance in the presence of the extract, and A2 is the absorbance without DPPH.

For series [4], the system named is Platelet-poor plasma (PPP), fibrinogen. As to the kind of experiment: Antithrombic assay: fibrinogen (FIB) content. The series is classed as biochemical, New Zealand white rabbits. The settings on record: rabbit PPP, compound 100 μM, mean ± SD n = 4, blank plasma 7.23 ± 0.38.
Text: as §1, §2, §3

The subject of series [5] is Platelet-poor plasma (PPP), prothrombin time. As to the kind of experiment: Antithrombic assay: prothrombin time (PT). The series is classed as biochemical, New Zealand white rabbits. The note with it: rabbit PPP, compound 100 μM, mean ± SD n = 4, blank plasma 5.03 ± 0.24.
Text: as §1, §2, §3

Series [6] has as its system Platelet-poor plasma (PPP), activated partial thromboplastin time. As to the kind of experiment: Antithrombic assay: activated partial thromboplastin time (APTT). The series is classed as biochemical, New Zealand white rabbits. The settings on record: rabbit PPP, compound 100 μM, mean ± SD n = 4, blank plasma 29.83 ± 3.86.
Text: as §1, §2, §3

On the set-up of series [7]: method as in PMID 16997537. The settings on record: cited from earlier work.

Converted amounts (≈) assume the structure as drawn. “And” between values parts separate entries of the source, which are not always exact repeats. Equal values may be shown once.

With `O=c1cc(-c2ccc(O)cc2)oc2cc(O)c(O)c(O)c12` [Scutellarein (2), 5,6,7-Trihydroxy-2-(4-hydroxyphenyl)-4H-chromen-4-one], the Solubility in series [1] (1 h) came to 6.85 µg/mL (≈ 23.9 µM). Further, the figures for the TT in series [2] and in series [2] (listed as scutellarein (2)) were 24.48 ± 1.18 s and 24.48 s, respectively. In addition, the IC50 in series [3] was found to be 16.1 µM. Also, the FIB came out at 6.91 ± 0.12 g/L in series [4] and 6.91 g/L in series [4] (listed as scutellarein (2)). The PT is 5.93 ± 0.81 s in series [5] and 5.93 s in series [5] (listed as scutellarein (2)). Also, the APTT stood at 36.12 ± 2.20 s in series [6] and 36.12 s in series [6] (listed as scutellarein (2)).

In series [1] (25 °C, water, thermodynamic from solid), `O=c1cc(-c2ccc(O)cc2)oc2c(S(=O)(=O)O)c(O)c(O)c(O)c12` [compound 3, 5,6,7-Trihydroxy-2-(4-hydroxyphenyl)-4-oxo-4H-chromene-8-sulfonic acid] registered a solubility at 1 h of 1950 µg/mL (≈ 5320 µM). Moreover, the TT in series [2] was 23.71 s and 23.71 ± 1.82 s. This compound returned an IC50 in series [3] of 16.8 µM. Further, the FIB in series [4] was 7.01 g/L and 7.01 ± 0.96 g/L. Also, in series [5], the PT was 6.33 s and 6.33 ± 1.87 s. In addition, the APTT in series [6] was 30.33 s and 30.33 ± 1.06 s.

On to `O=C(O)[C@H]1O[C@@H](Oc2cc3oc(-c4ccc(O)cc4)cc(=O)c3c(O)c2O)[C@H](O)[C@@H](O)[C@@H]1O` [Scutellarin (1), 4′,5,6-trihydroxyflavone-7-glucuronide], for which the Solubility in series [1] (in pure water, 25 °C, UV spectrophotometry) was determined as 7.62 µg/mL (≈ 16.5 µM). The TT is given as 23.25 ± 1.55 s in series [2] and 23.25 s in series [2] (listed as scutellarin (1)). The compound also gave an IC50 in series [3] of 17.9 µM. Further, the FIB in series [4] stood at 6.41 ± 0.15 g/L; in series [4] (listed as scutellarin (1)), 6.41 g/L. Besides, in series [7], the aqueous solubility is 14.4 ± 0.17 µg/mL (≈ 31.1 µM). In addition, the PT in series [5] was 6.25 ± 0.08 s; in series [5] (listed as scutellarin (1)), 6.25 s. Further, the APTT in series [6] is recorded as 33.78 ± 2.32 s; in series [6] (listed as scutellarin (1)), 33.78 s.
